# Target: T1, hCRTH2 (Homo sapiens, UniProt Q9Y5Y4)
# T1 construct: expressed in transfected cells; host or cells: HEK (human embryonic kidney) cells expressing hCRTH2; membrane preparation
# T1 sequence (Q9Y5Y4 1-395): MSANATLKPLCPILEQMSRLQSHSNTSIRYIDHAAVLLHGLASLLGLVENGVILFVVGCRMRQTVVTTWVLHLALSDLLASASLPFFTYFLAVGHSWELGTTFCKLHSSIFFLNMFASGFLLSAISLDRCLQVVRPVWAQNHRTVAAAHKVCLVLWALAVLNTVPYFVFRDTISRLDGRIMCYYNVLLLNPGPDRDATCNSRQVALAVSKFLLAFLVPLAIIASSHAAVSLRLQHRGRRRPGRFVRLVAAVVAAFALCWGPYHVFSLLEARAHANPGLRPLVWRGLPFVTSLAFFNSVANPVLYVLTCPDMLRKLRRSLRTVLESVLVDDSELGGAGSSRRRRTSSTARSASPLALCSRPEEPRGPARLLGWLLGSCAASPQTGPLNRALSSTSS
# Assay: Radioligand binding assay ([3H]PGD2 competition, HEK-hCRTH2 membranes)
# Settings: [3H]PGD2 competition, Table B
# In short: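 Displacement of 3.0 nM [3H]PGD2 from human CRTH2 expressed in HEK membranes was measured at room temperature over 60 min. Unlabelled PGD2 at 10 μM gave non-specific binding.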
row,Ki,Structure (SMILES)
1,20.1 to 200 nM,"O=C(O)CCCCc1nc2cc(C(=O)N3CCC(N4CCCCC4)CC3)ccc2nc1-c1ccc(Cl)cc1 [compound 337, 5-(7-([1,4′-bipiperidine]-1′-carbonyl)-3 (4-chlorophenyl)quinoxalin-2-yl)pentanoic acid]"
2,2.1 to 20 nM,"O=C(O)CCCCc1nc2cc(C(=O)N3CCC(n4ccc5ccccc54)CC3)ccc2nc1-c1ccc(Cl)cc1 [compound 338, 5-(7-(4-(1H-indol-1-yl)piperidine-l-carbonyl)-3-(4-chlorophenyl)quinoxalin-2-yl)pentanoic acid]"
3,20.1 to 200 nM,"O=C(O)CCCCc1nc2cc(C(=O)N3CCC(N4CCCC4)CC3)ccc2nc1-c1ccc(Cl)cc1 [compound 339, 5-(3-(4-chlorophenyl)-7-(4-(pyrrolidin-1-yl)piperidine-1-carbonyl)quinoxalin-2-yl)pentanoic acid]"
4,2.1 to 20 nM,"O=C(O)CCCCc1nc2cc(C(=O)N3CCC4(CCOC4)CC3)ccc2nc1-c1ccc(Cl)cc1 [compound 340, 5-(3-(4-chlorophenyl)-7-(2-oxa-8-azaspiro[4.5]decane-8-carbonyl)quinoxalin-2-yl)pentanoic acid]"
5,2.1 to 20 nM,"O=C(O)CCCCc1nc2cc(C(=O)N3CCC(n4cncn4)CC3)ccc2nc1-c1ccc(Cl)cc1 [compound 341, 5-(7-(4-(1H-1,2,4-triazol-yl)piperidine-1-carbonyl)-3-(4-chlorophenyl)quinoxalin-2-yl)pentanoic acid]"
6,2.1 to 20 nM,"O=C(O)CCCCc1nc2cc(C(=O)N3CCC(n4cccn4)CC3)ccc2nc1-c1ccc(Cl)cc1 [compound 342, 5-(7-(4-(1H-pyrazol-1-yl)piperidine-1-carbonyl)-3-(4-chlorophenyl)quinoxalin-2-yl)pentanoic acid]"
7,2.1 to 20 nM,"O=C(O)CCCCc1nc2cc(C(=O)N3CCC4(CC3)COc3ccccc34)ccc2nc1-c1ccc(Cl)cc1 [compound 343, 5-(3--(4-chlorophenyl)-7-(2H-spiro[benzofuran-3,4′-piperidin]-1′-ylcarbonyl)quinoxalin-2-yl)pentanoic acid]"
8,2.1 to 20 nM,"O=C(O)CCCCc1nc2cc(C(=O)N3CCC4(CC3)NC(=O)c3ccccc3O4)ccc2nc1-c1ccc(Cl)cc1 [compound 344, 5-(3-(4-chlorophenyl)-7-(4-oxo-3,4-dihydrospiro[benzo[e][1,3]oxazine-2,4′-piperidin]-1′-ylcarbonyl)quinoxalin-2-yl)pentanoic acid]"
9,2.1 to 20 nM,"O=C(O)CCCCc1nc2cc(C(=O)N3CC4CCCC(C3)C4c3ccccc3)ccc2nc1-c1ccc(Cl)cc1 [compound 345, 5-(3-(4-chlorophenyl)-7-((1R,5S,9r)-9-phenyl-3-azabicyclo[3.3.1]nonane-3-carbonyl)quinoxa1in-2-yl)pentanoic acid]"
10,2.1 to 20 nM,"Cn1cnc(C2CCN(C(=O)c3ccc4nc(-c5ccc(Cl)cc5)c(CCCCC(=O)O)nc4c3)CC2)c1 [compound 346, 5-(3-(4-chlorophenyl)-7-(4-(1-methyl-1H-imidazol-4-yl)piperidine-1-carbonyl)quinoxalin-2-yl)pentanoic acid]"
11,20.1 to 200 nM,"O=C(O)CCCCc1nc2cc(C(=O)N3CCc4oc(C5CC5)nc4C3)ccc2nc1-c1ccc(Cl)cc1 [compound 347, 5-(3-(4-chlorophenyl)-7-(2-cyclopropyl-4,5,6,7-tetrahydrooxazolo[4,5-c]pyridine-5-carbonyl)quinoxalin-2-yl)pentanoic acid]"
12,2.1 to 20 nM,"O=C(O)CCCCc1nc2cc(C(=O)N3CCC(n4ncc5ccccc54)CC3)ccc2nc1-c1ccc(Cl)cc1 [compound 348, 5-(7-(4-(1H-indazol-1-yl)piperidine-1-carbonyl)-3-(4-chlorophenyl)quinoxalin-2-yl)pentanoic acid]"
13,20.1 to 200 nM,"CN1CC2(CCN(C(=O)c3ccc4nc(-c5ccc(Cl)cc5)c(CCCCC(=O)O)nc4c3)CC2)CC1=O [compound 349, 5-(3-(4-chlorophenyl)-7-(2-methyl-3-oxo-2,8-diazaspiro[4.5]decane-8-carbonyl)quinoxalin-2-yl)pentanoic acid]"
14,20.1 to 200 nM,"O=C(O)CCCCc1nc2cc(C(=O)N3CCN(c4ccccc4)C(=O)C3)ccc2nc1-c1ccccc1 [compound 350, 5-(7-(3-oxo-4-phenylpiperazine-1-carbonyl)-3-phenylquinoxalin-2-yl)pentanoic acid]"
15,2.1 to 20 nM,"O=C(O)CCCCc1nc2cc(C(=O)N3CCN(c4ccc(F)cc4)CC3)ccc2nc1-c1ccccc1 [compound 351, 5-(7-(4-(4-fluorophenyl)piperazine-1-carbonyl)-3-phenylquinoxalin-2-yl)pentanoic acid]"
16,2.1 to 20 nM,"O=C(O)CCCCc1nc2cc(C(=O)NC3CC(=O)Nc4ccccc43)ccc2nc1-c1ccc(F)cc1 (stereo not shown) [compound 352, 5-(3-(4-fluorophenyl)-7-((2-oxo-1,2,3,4-tetrahydroquinolin-4-yl)carbamoyl)quinoxalin-2-yl)pentanoic acid]"

row,Ki,Structure (SMILES)
1,2.1 to 20 nM,"O=C(O)CCCCc1nc2cc(C(=O)N3CCC4(CC3)CNC(=O)c3ccccc34)ccc2nc1-c1ccc(F)cc1 [compound 353, 5-(3-(4-fluorophenyl)-7-(1-oxo-2,3-dihydro-1H-spiro[isoquinoline-4,4′-piperidin]-1′-ylcarbonyl)quinoxalin-2-yl)pentanoic acid]"
2,20.1 to 200 nM,"O=C(O)CCCCc1nc2cc(C(=O)N[C@@H]3CCCc4ccncc43)ccc2nc1-c1ccc(F)cc1 [compound 354, (R)-5-(3-(4-fluorophenyl)-7-((5,6,7,8-tetrahydroisoquinolin-8-yl)carbamoyl)quinoxalin-2-yl)pentanoic acid]"
3,2.1 to 20 nM,"O=C(O)CCCCc1nc2cc(C(=O)N[C@@H]3CCSc4ccccc43)ccc2nc1-c1ccc(F)cc1 [compound 355, (R)-5-(3-(4-fluorophenyl)-7-(thiochroman-4-ylcarbamoyl)quinoxalin-2-yl)pentanoic acid]"
4,20.1 to 200 nM,"O=C(O)CCCCc1nc2cc(C(=O)N3CCC(n4c(=O)[nH]c5ccccc54)CC3)ccc2nc1-c1ccc(F)cc1 [compound 356, 5-(3-(4-fluorophenyl)-7-(4-(2-oxo-2,3-dihydro-1H-benzo[d]imidazol-1-yl)piperidine-1-carbonyl)quinoxalin-2-yl)pentanoic acid]"
5,2.1 to 20 nM,"O=C(O)CCCCc1nc2cc(C(=O)N3CCN(c4ccccn4)CC3)ccc2nc1-c1ccc(F)cc1 [compound 357, 5-(3-(4-fluorophenyl)-7-(4-(pyridin-2-yl)piperazine-1-carbonyl)quinoxalin-2-yl)pentanoic acid]"
6,2.1 to 20 nM,"N#Cc1cccnc1N1CCN(C(=O)c2ccc3nc(-c4ccc(F)cc4)c(CCCCC(=O)O)nc3c2)CC1 [compound 358, 5-(7-(4-(3-cyanopyridin-2-yl)piperazine-l-carbonyl)-3-(4-fluorophenyl)quinoxalin-2-yl)pentanoic acid]"
7,2.1 to 20 nM,"N#Cc1ccccc1N1CCN(C(=O)c2ccc3nc(-c4ccc(F)cc4)c(CCCCC(=O)O)nc3c2)CC1 [compound 359, 5-(7-(4-(2-cyanophenyl)piperazine-1-carbonyl)-3-(4-fluorophenyl)quinoxalin-2-yl)pentanoic acid]"
8,20.1 to 200 nM,"O=C(O)CCCCc1nc2cc(C(=O)N3CCN(c4cnccn4)CC3)ccc2nc1-c1ccc(F)cc1 [compound 360, 5-(3-(4-fluorophenyl) 7-(4-(pyrazin-2-yl)piperazine-1-carbonyl)quinoxalin-2-yl)pentanoic acid]"
9,2.1 to 20 nM,"COc1ccccc1C1CCN(C(=O)c2ccc3nc(-c4ccc(F)cc4)c(CCCCC(=O)O)nc3c2)CC1 [compound 361, 5-(3-(4-fluorophenyl)-7-(4-(2-methoxyphenyl)piperidine-1-carbonyl)quinoxalin-2-yl)pentanoic acid]"
10,2.1 to 20 nM,"O=C(O)CCCCc1nc2cc(C(=O)N3CCC4(CC3)OCc3ccccc34)ccc2nc1-c1ccc(F)cc1 [compound 362, 5-(3-(4-fluorophenyl)-7-(3H-spiro[isobenzofuran-1,4′-piperidin]-1′-ylcarbonyl)quinoxalin-2-yl)pentanoic acid]"
11,2.1 to 20 nM,"O=C(O)CCCCc1nc2cc(C(=O)N3CCN(c4ccccc4C(F)(F)F)CC3)ccc2nc1-c1ccc(F)cc1 [compound 363, 5-(3-(4-fluorophenyl)-7-(4-(2-(trifluoromethyl)phenyl)piperazine-1-carbonyl)quinoxalin-2-yl)pentanoic acid]"
12,2.1 to 20 nM,"O=C(O)CCCCc1nc2cc(C(=O)N3CCN(c4ccccc4Cl)CC3)ccc2nc1-c1ccc(F)cc1 [compound 364, 5-(7-(4-(2-chlorophenyl)piperazine-1-carbonyl)-3-(4-fluorophenyl)quinoxalin-2-yl)pentanoic acid]"
13,2.1 to 20 nM,"Cc1ccccc1N1CCN(C(=O)c2ccc3nc(-c4ccc(F)cc4)c(CCCCC(=O)O)nc3c2)CC1 [compound 365, 5-(3-(4-fluorophenyl)-7-(4-(o-tolyl)piperazine-1-carbonyl)quinoxalin-2-yl)pentanoic acid]"
14,2.1 to 20 nM,"Cc1cccc(N2CCN(C(=O)c3ccc4nc(-c5ccc(F)cc5)c(CCCCC(=O)O)nc4c3)CC2)c1 [compound 366, 5-(3-(4-fluorophenyl)-7-(4-(m-tolyl)piperazine-1-carbonyl)quinoxalin-2-yl)pentanoic acid]"
15,2.1 to 20 nM,"COc1ccc(N2CCN(C(=O)c3ccc4nc(-c5ccc(F)cc5)c(CCCCC(=O)O)nc4c3)CC2)cc1 [compound 367, 5-(3-(4-fluorophenyl)-7-(4-(4-methoxyphenyl)piperazine-1-carbonyl)quinoxalin-2-yl)pentanoic acid]"

# From patent publication US9469615B2, “Quinoxalines and AZA-quinoxalines as CRTH2 receptor modulators” (Merck Sharp & Dohme Corp., priority 2010, dated 2016)
